Reference: publication PMC7265341, “Quantifying CDK inhibitor selectivity in live cells” (Nature Communications, 2020)
Like-named read-outs stand apart in the source and are kept apart here.

Assays:
[1] = biological target: CDK1/Cyclin E1 (Homo sapiens, UniProt P06493); assay: NanoBRET live-cell target engagement, CDK1-NanoLuc/Cyclin E1 in HEK-293; format: binding; details: for inhibition at 10 µM: read-out: CDK1/E1 Inhibition at 10µM (%)
[2] = biological target: CDK9/Cyclin K (Homo sapiens, UniProt P50750); assay: NanoBRET live-cell target engagement, NanoLuc-CDK9/Cyclin K in HEK-293; format: binding; details: 10µM, read-out: CDK9/K Inhibition at 10µM (%)
[3] = biological target: CDK11B/Cyclin L2 (Homo sapiens, UniProt P21127); assay: NanoBRET live-cell target engagement, CDK11B-NanoLuc/Cyclin L2 in HEK-293; format: binding; details: for inhibition at 10 µM: read-out: CDK11b/L2 Inhibition at 10µM (%); for IC50: read-out: CDK11b/L2 IC50
[4] = biological target: CDK6/Cyclin D1 (Homo sapiens, UniProt Q00534); assay: NanoBRET live-cell target engagement, NanoLuc-CDK6/Cyclin D1 in HEK-293; format: binding; details: for inhibition at 10 µM: read-out: CDK6/D1 Inhibition at 10µM (%); for IC50: read-out: CDK6/D1 IC50
[5] = biological target: T1, CDK11A/Cyclin L2 (Homo sapiens, UniProt Q9UQ88); assay: NanoBRET live-cell target engagement, CDK11A-NanoLuc/Cyclin L2 in HEK-293; format: binding; details: for inhibition at 10 µM: read-out: CDK11a/L2 Inhibition at 10µM (%); for IC50: read-out: CDK11a/L2 IC50
T1 sequence (Q9UQ88 1-783): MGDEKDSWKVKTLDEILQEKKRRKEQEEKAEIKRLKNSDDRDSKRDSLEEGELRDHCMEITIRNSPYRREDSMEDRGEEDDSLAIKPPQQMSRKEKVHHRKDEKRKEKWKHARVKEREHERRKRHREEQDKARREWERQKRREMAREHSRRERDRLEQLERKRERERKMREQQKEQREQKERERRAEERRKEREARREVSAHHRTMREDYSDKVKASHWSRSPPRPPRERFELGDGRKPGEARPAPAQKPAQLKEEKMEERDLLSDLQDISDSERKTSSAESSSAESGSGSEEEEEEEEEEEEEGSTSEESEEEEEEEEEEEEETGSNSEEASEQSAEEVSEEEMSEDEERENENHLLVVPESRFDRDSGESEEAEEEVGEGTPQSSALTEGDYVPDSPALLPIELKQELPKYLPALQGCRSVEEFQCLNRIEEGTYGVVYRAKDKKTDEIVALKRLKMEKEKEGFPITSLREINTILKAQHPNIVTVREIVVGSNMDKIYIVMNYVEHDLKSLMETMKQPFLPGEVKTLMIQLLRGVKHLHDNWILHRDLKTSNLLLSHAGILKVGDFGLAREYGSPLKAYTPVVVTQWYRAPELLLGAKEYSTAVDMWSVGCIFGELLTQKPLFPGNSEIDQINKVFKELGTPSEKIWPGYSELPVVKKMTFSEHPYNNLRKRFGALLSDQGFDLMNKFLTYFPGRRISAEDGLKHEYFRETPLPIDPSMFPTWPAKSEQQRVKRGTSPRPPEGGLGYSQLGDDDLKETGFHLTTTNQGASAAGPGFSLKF

[6] = biological target: CDK19/Cyclin C (Homo sapiens, UniProt Q9BWU1); assay: NanoBRET live-cell target engagement, NanoLuc-CDK19/Cyclin C in HEK-293; details: read-out: CDK19/C Inhibition at 10µM (%), 10µM
[7] = biological target: CDK18/Cyclin Y (Homo sapiens, UniProt Q07002); assay: NanoBRET live-cell target engagement, CDK18-NanoLuc/Cyclin Y in HEK-293; format: binding; details: for inhibition at 10 µM: read-out: CDK18/Y Inhibition at 10µM (%); for IC50: read-out: CDK18/Y IC50
[8] = biological target: CDK12/Cyclin K (Homo sapiens, UniProt Q9NYV4); assay: NanoBRET live-cell target engagement, CDK12-NanoLuc/Cyclin K in HEK-293; format: binding; details: for inhibition at 10 µM: read-out: CDK12/K Inhibition at 10µM (%); for IC50: read-out: CDK12/K IC50
[9] = biological target: CDK16/Cyclin Y (Homo sapiens, UniProt Q00536); assay: NanoBRET live-cell target engagement, CDK16-NanoLuc/Cyclin Y in HEK-293; format: binding; details: 10µM, read-out: CDK16/Y Inhibition at 10µM (%)
[10] = biological target: CDK15/Cyclin Y (Homo sapiens, UniProt Q96Q40); assay: NanoBRET live-cell target engagement, NanoLuc-CDK15/Cyclin Y in HEK-293; format: binding; details: for inhibition at 10 µM: read-out: CDK15/Y Inhibition at 10µM (%); for IC50: read-out: CDK15/Y IC50
[11] = biological target: CDK17/Cyclin Y (Homo sapiens, UniProt Q00537); assay: NanoBRET live-cell target engagement, CDK17-NanoLuc/Cyclin Y in HEK-293; format: binding; details: for inhibition at 10 µM: read-out: CDK17/Y Inhibition at 10µM (%); for IC50: read-out: CDK17/Y IC50
[12] = biological target: CDK4/Cyclin D1 (Homo sapiens, UniProt P11802); assay: NanoBRET live-cell target engagement, NanoLuc-CDK4/Cyclin D1 in HEK-293; format: binding; details: for inhibition at 10 µM: read-out: CDK4/D1 Inhibition at 10µM (%)
[13] = biological target: CDK8/Cyclin C (Homo sapiens, UniProt P49336); assay: NanoBRET live-cell target engagement, NanoLuc-CDK8/Cyclin C in HEK-293; format: binding; details: 10µM, read-out: CDK8/C Inhibition at 10µM (%)
[14] = biological target: CDK20/Cyclin H (Homo sapiens, UniProt Q8IZL9); assay: NanoBRET live-cell target engagement, NanoLuc-CDK20/Cyclin H in HEK-293; format: binding; details: 10µM, read-out: CDK20/H Inhibition at 10µM (%)
[15] = biological target: CDK14/Cyclin Y (Homo sapiens, UniProt O94921); assay: NanoBRET live-cell target engagement, CDK14-NanoLuc/Cyclin Y in HEK-293; format: binding; details: for inhibition at 10 µM: read-out: CDK14/Y Inhibition at 10µM (%)
[16] = biological target: CDK7 (Homo sapiens, UniProt P50613); assay: NanoBRET live-cell target engagement, NanoLuc-CDK7 in HEK-293; format: binding; details: for inhibition at 10 µM: read-out: CDK7 Inhibition at 10µM (%); for IC50: read-out: CDK7 IC50
[17] = biological target: CDK5/CDK5R1 (Homo sapiens, UniProt Q00535); assay: NanoBRET live-cell target engagement, CDK5-NanoLuc/CDK5R1 in HEK-293; format: binding; details: for inhibition at 10 µM: read-out: CDK5/CDK5R1 Inhibition at 10µM (%)
[18] = biological target: CDK10/Cyclin L2 (Homo sapiens, UniProt Q15131); assay: NanoBRET live-cell target engagement, CDK10-NanoLuc/Cyclin L2 in HEK-293; details: for inhibition at 10 µM: read-out: CDK10/L2 Inhibition at 10µM (%), 10µM
[19] = biological target: CDK13/Cyclin K (Homo sapiens, UniProt Q14004); assay: NanoBRET live-cell target engagement, CDK13-NanoLuc/Cyclin K in HEK-293; format: binding; details: 10µM, read-out: CDK13/K Inhibition at 10µM (%)

Sequence of CDK19/Cyclin C (Q9BWU1 whole entry): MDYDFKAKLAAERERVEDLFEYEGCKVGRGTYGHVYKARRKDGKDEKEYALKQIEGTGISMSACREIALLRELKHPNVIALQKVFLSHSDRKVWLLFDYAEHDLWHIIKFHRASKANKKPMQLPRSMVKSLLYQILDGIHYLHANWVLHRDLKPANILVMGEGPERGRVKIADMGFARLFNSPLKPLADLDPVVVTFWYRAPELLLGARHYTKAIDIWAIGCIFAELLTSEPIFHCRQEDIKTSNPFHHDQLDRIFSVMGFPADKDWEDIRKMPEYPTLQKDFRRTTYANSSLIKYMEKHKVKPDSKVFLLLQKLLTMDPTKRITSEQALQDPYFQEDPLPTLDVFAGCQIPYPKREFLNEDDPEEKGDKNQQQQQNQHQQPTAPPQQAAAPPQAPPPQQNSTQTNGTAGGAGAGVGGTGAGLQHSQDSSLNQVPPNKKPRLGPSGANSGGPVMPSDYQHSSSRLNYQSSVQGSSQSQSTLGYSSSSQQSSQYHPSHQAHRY
Sequence of CDK19/Cyclin C (P24863 whole entry partner): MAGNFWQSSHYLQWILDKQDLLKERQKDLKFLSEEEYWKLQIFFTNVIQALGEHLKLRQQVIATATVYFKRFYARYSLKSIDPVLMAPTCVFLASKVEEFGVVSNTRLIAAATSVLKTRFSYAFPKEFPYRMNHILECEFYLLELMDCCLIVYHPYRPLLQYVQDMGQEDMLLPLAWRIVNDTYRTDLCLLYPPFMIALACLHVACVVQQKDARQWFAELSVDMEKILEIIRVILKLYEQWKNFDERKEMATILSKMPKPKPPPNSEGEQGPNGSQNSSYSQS
Sequence of CDK17/Cyclin Y (Q00537 whole entry): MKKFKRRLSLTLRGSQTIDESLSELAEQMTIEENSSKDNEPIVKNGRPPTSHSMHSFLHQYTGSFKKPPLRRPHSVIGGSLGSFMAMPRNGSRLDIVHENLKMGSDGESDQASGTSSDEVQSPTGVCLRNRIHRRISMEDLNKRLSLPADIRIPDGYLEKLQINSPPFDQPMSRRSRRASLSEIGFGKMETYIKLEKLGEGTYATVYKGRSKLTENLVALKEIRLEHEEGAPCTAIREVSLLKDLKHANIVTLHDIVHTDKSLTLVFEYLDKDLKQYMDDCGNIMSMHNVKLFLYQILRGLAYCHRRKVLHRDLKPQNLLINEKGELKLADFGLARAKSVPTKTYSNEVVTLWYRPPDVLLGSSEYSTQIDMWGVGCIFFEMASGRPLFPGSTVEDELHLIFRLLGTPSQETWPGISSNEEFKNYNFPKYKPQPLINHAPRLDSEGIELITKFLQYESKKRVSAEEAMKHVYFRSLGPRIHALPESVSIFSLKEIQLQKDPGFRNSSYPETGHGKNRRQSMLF
Sequence of CDK17/Cyclin Y (Q8ND76 whole entry partner): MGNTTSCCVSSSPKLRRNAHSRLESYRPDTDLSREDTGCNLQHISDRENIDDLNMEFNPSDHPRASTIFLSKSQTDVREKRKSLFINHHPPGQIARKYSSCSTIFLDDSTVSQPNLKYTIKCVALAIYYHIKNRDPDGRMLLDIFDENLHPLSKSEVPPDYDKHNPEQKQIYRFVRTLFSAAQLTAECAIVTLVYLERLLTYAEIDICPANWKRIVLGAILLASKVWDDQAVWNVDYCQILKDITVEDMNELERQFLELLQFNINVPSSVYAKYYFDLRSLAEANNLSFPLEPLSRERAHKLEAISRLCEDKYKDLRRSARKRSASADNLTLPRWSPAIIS
Sequence of CDK4/Cyclin D1 (P11802 whole entry): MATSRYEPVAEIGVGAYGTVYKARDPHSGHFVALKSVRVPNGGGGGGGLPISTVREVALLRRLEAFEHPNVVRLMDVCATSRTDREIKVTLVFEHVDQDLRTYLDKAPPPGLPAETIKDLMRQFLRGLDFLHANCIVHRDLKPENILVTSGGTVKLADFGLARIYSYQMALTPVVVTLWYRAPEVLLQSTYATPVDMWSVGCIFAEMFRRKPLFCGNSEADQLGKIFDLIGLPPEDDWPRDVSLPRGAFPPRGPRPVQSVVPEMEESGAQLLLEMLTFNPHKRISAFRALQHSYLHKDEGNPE
Sequence of CDK4/Cyclin D1 (P24385 whole entry partner): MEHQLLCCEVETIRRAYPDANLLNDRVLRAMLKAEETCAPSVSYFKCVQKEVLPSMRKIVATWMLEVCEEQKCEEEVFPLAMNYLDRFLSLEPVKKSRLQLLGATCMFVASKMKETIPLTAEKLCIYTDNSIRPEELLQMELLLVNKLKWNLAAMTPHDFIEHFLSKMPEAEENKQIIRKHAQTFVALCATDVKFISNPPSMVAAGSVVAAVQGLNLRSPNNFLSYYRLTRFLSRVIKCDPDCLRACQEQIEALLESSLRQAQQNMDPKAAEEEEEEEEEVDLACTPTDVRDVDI
Sequence of CDK7 (P50613 whole entry): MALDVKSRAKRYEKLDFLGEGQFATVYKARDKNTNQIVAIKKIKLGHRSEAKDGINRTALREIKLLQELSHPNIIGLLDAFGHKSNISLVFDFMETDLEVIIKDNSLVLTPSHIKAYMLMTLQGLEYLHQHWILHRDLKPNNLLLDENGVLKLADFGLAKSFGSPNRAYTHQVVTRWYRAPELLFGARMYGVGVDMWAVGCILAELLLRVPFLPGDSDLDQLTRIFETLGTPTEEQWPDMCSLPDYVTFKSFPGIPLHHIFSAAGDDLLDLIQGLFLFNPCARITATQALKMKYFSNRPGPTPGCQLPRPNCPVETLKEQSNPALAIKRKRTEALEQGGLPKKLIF
Sequence of CDK18/Cyclin Y (Q07002 whole entry): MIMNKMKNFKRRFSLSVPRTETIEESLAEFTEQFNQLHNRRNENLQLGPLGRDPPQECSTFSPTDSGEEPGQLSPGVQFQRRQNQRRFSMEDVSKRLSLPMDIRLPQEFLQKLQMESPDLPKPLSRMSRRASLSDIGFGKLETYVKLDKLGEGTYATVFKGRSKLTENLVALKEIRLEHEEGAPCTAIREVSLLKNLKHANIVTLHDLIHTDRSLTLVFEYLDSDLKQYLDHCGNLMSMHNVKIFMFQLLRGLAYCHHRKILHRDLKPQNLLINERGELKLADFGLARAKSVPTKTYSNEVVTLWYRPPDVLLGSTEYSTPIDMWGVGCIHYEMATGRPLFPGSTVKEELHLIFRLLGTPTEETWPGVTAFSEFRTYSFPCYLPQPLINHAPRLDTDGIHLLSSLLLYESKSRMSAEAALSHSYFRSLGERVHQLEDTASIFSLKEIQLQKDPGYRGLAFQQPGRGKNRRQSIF
Sequence of CDK18/Cyclin Y (Q8ND76 whole entry partner): as the sequence (Q8ND76 whole entry partner) above
Sequence of CDK1/Cyclin E1 (P06493 whole entry): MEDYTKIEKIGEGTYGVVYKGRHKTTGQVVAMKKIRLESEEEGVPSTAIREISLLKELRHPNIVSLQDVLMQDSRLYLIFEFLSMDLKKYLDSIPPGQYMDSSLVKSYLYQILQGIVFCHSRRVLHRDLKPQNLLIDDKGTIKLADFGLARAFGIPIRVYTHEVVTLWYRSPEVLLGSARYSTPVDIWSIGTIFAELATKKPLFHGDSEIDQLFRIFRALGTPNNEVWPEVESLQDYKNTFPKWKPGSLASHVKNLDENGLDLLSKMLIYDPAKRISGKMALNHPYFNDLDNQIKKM
Sequence of CDK1/Cyclin E1 (P24864 whole entry partner): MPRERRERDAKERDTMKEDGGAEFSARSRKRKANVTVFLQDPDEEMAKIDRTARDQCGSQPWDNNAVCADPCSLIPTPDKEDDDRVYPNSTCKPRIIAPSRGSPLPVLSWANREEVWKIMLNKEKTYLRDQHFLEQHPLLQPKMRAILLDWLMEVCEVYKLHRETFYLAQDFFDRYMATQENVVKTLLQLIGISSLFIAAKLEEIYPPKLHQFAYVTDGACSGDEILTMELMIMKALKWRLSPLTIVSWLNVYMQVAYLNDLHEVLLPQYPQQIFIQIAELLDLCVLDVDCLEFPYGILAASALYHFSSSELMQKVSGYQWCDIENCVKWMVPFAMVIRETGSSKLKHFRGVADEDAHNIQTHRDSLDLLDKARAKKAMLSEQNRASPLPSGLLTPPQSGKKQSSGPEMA
Sequence of CDK11B/Cyclin L2 (P21127 1-782 isoform P21127-2): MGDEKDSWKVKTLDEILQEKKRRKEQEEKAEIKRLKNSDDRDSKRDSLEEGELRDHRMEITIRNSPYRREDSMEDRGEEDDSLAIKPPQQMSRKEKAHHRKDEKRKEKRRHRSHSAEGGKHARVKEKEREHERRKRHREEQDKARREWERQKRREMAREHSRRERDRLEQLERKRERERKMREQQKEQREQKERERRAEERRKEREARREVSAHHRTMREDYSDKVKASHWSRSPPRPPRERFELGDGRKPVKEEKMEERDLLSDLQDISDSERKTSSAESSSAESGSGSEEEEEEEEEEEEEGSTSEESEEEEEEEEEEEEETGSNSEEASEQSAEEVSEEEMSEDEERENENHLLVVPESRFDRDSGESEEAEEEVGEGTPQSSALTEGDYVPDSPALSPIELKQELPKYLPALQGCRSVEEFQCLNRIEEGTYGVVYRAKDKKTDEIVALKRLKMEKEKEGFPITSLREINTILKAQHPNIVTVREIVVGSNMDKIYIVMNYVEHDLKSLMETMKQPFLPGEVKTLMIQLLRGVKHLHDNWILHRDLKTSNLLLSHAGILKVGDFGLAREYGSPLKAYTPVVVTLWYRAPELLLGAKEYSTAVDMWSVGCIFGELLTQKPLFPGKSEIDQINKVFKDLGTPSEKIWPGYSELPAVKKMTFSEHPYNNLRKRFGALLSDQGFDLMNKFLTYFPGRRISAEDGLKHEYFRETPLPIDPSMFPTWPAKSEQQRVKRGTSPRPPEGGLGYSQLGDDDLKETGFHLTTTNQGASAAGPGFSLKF

## CN1C/C=C/CCOc2cccc(c2)-c2ccnc(n2)Nc2cccc(c2)C1 [SB1317]
[1]; average of experiments
  inhibition at 10 µM: 95.4%
[1]; independent experiment 1
  inhibition at 10 µM: 95%
[1]; independent experiment 2
  inhibition at 10 µM: 95.8%
[1]; average (± SEM where n=3), read-out: CDK1/E1 IC50
  IC50: 200 nM
[1]; independent experiment 1, read-out: CDK1/E1 IC50
  IC50: 200 nM
[1]; independent experiment 2, read-out: CDK1/E1 IC50
  IC50: 210 nM
[1]; live HEK-293, 2 h, mean ± S.E.M. (n=3) or mean (n=2), read-out: IC50 for CDK/cyclin complexes, CDK1/E1
  IC50: 200 nM
[2]; average of experiments
  inhibition at 10 µM: 99.7%
[2]; independent experiment 1
  inhibition at 10 µM: 100%
[2]; independent experiment 2
  inhibition at 10 µM: 99.2%
[3]; average of experiments
  inhibition at 10 µM: 94.9%
[3]; independent experiment 1
  inhibition at 10 µM: 95.5%
  IC50: 49 nM
[3]; independent experiment 2
  inhibition at 10 µM: 94.4%
  IC50: 54 nM
[3]; average (± SEM where n=3)
  IC50: 51 nM
[4]; average of experiments
  inhibition at 10 µM: 98.3%
[4]; independent experiment 1
  inhibition at 10 µM: 97.3%
  IC50: 290 nM
[4]; independent experiment 2
  inhibition at 10 µM: 99.2%
  IC50: 250 nM
[4]; average (± SEM where n=3)
  IC50: 270 nM
[5]; average of experiments
  inhibition at 10 µM: 95.6%
[5]; independent experiment 1
  inhibition at 10 µM: 93.3%
  IC50: 200 nM
[5]; independent experiment 2
  inhibition at 10 µM: 97.9%
  IC50: 180 nM
[5]; average (± SEM where n=3)
  IC50: 190 nM
[6]; average of experiments
  inhibition at 10 µM: 74.8%
[6]; independent experiment 1
  inhibition at 10 µM: 62.1%
[6]; independent experiment 2
  inhibition at 10 µM: 87.4%
[7]; average of experiments
  inhibition at 10 µM: 101%
[7]; independent experiment 1
  inhibition at 10 µM: 98.4%
  IC50: 99 nM
[7]; independent experiment 2
  inhibition at 10 µM: 103%
  IC50: 65 nM
[7]; average (± SEM where n=3)
  IC50: 82 nM
[8]; average of experiments
  inhibition at 10 µM: 60.9%
[8]; independent experiment 1
  inhibition at 10 µM: 45.8%
  IC50: 610 nM
[8]; independent experiment 2
  inhibition at 10 µM: 76%
  IC50: 750 nM
[8]; average (n=2)
  IC50: 680 nM
[9]; independent experiment 1
  inhibition at 10 µM: 96.3%
[9]; independent experiment 2
  inhibition at 10 µM: 92.9%
[10]; average of experiments
  inhibition at 10 µM: 98.1%
[10]; independent experiment 1
  inhibition at 10 µM: 97.4%
  IC50: 55 nM
[10]; independent experiment 2
  inhibition at 10 µM: 98.7%
  IC50: 61 nM
[10]; average (± SEM where n=3)
  IC50: 58 nM
[11]; average of experiments
  inhibition at 10 µM: 94.8%
[11]; independent experiment 1
  inhibition at 10 µM: 96.6%
  IC50: 50 nM
[11]; independent experiment 2
  inhibition at 10 µM: 93.1%
  IC50: 47 nM
[11]; average (± SEM where n=3)
  IC50: 49 nM
[12]; average of experiments
  inhibition at 10 µM: 99.8%
[12]; independent experiment 1
  inhibition at 10 µM: 100%
[12]; independent experiment 2
  inhibition at 10 µM: 99.2%
[12]; average (± SEM where n=3), read-out: CDK4/D1 IC50
  IC50: 140 nM
[12]; independent experiment 1, read-out: CDK4/D1 IC50
  IC50: 140 nM
[12]; independent experiment 2, read-out: CDK4/D1 IC50
  IC50: 150 nM
[12]; live HEK-293, 2 h, mean ± S.E.M. (n=3) or mean (n=2), read-out: IC50 for CDK/cyclin complexes, CDK4/D1
  IC50: 140 nM
[13]; average of experiments
  inhibition at 10 µM: 72.3%
[13]; independent experiment 1
  inhibition at 10 µM: 57.3%
[13]; independent experiment 2
  inhibition at 10 µM: 87.3%
[14]; independent experiment 1
  inhibition at 10 µM: 79.2%
[14]; independent experiment 2
  inhibition at 10 µM: 82.8%
[15]; average of experiments
  inhibition at 10 µM: 97.2%
[15]; independent experiment 1
  inhibition at 10 µM: 96%
[15]; independent experiment 2
  inhibition at 10 µM: 98.5%
[15]; average (± SEM where n=3), read-out: CDK14/Y IC50
  IC50: 29 nM
[15]; independent experiment 1, read-out: CDK14/Y IC50
  IC50: 28 nM
[15]; independent experiment 2, read-out: CDK14/Y IC50
  IC50: 29 nM
[15]; live HEK-293, 2 h, mean ± S.E.M. (n=3) or mean (n=2), read-out: IC50 for CDK/cyclin complexes, CDK14/Y
  IC50: 29 nM
[16]; average of experiments
  inhibition at 10 µM: 96.4%
[16]; independent experiment 1
  inhibition at 10 µM: 97.5%
  IC50: 11 nM
[16]; independent experiment 2
  inhibition at 10 µM: 95.3%
  IC50: 8.8 nM
[16]; average (± SEM where n=3)
  IC50: 10 nM
[17]; average of experiments
  inhibition at 10 µM: 93.3%
[17]; independent experiment 1
  inhibition at 10 µM: 88.5%
[17]; independent experiment 2
  inhibition at 10 µM: 98.1%
[17]; average (± SEM where n=3), read-out: CDK5/CDK5R1 IC50
  IC50: 180 nM
[17]; independent experiment 1, read-out: CDK5/CDK5R1 IC50
  IC50: 190 nM
[17]; independent experiment 2, read-out: CDK5/CDK5R1 IC50
  IC50: 180 nM
[17]; live HEK-293, 2 h, mean ± S.E.M. (n=3) or mean (n=2), read-out: IC50 for CDK/cyclin complexes, CDK5/R1
  IC50: 180 nM
[18]; CDK10/L2 IC50 (nM), average (± SEM where n=3)
  IC50: 520 nM
[18]; CDK10/L2 IC50 (nM), independent experiment 1
  IC50: 530 nM
[18]; CDK10/L2 IC50 (nM), independent experiment 2
  IC50: 520 nM
[18]; IC50 for CDK/cyclin complexes, CDK10/L2, live HEK-293, 2 h, mean ± S.E.M. (n=3) or mean (n=2)
  IC50: 520 nM
[18]; average of experiments
  inhibition at 10 µM: 88%
[18]; independent experiment 1
  inhibition at 10 µM: 81.7%
[18]; independent experiment 2
  inhibition at 10 µM: 94.4%
[19]; average of experiments
  inhibition at 10 µM: 63.7%
[19]; independent experiment 1
  inhibition at 10 µM: 47.7%
[19]; independent experiment 2
  inhibition at 10 µM: 79.6%
